pIC50: −log10 of the molar value.
Key:
[1] = system: BRCA1 mRNA expression in MDA-MB-231 cells; assay: qRT-PCR assay: BRCA1 mRNA expression in MDA-MB-231; format: cell-based, human; settings: Homo sapiens, MDA-MB-231, Inhibition of BRCA1 mRNA expression in MDA-MB-231 cells; median; read-out: RTqPCR-MDA-MB-231, IC50, BRCA1 (median)
How it was run: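 Cells were seeded at 200,000 cells/well, left 24 h, then exposed continuously to test substances for 24 h. Total RNA (600 ng) was reverse-transcribed to cDNA and amplified by qPCR, and transcript levels were normalised to GAPDH housekeeping expression.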

[2] = system: CAL-120, human breast adenocarcinoma cells; assay: Proliferation assay CAL-120 (crystal violet, 4 days); format: cell-based; settings: Homo sapiens, CAL-120, 96 h, CAL-120 cells, median, read-out: Prolif-CAL-120, IC50-[mol/l] (median)
How it was run: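 Cells seeded at 4,000/well in medium with 10% FCS; after 24 h, compounds added at 0.01-10 µmol/L (0.1% DMSO) for 4 days. Glutaraldehyde-fixed, crystal violet-stained, absorbance at 595 nm normalized to zero-point plate (0%) and untreated cells (100%); IC50 by 4-parameter fit.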

[3] = system: BRCA1 mRNA expression in CAL-120 cells; assay: qRT-PCR assay: BRCA1 mRNA expression in CAL-120; format: cell-based; settings: Homo sapiens; Inhibition of BRCA1 mRNA expression in CAL-120 cells; median; read-out: RTqPCR-CAL-120, IC50, BRCA1 (median)
How it was run: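 GAPDH-normalised RT-qPCR measures the transcript after 24 h continuous compound treatment of cells seeded at 200,000/well one day earlier.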

[4] = target: T1, CDK12 (nuclear staining in CAL-120 cells) (Homo sapiens, UniProt Q9NYV4); assay: CDK12 nuclear protein level: immunofluorescence/high content analysis (CAL-120); format: cell-based; settings: for DC50: CAL-120 cells, 24 h, immunofluorescence, 50% reduction of nuclear CDK12 staining intensity, median, read-out: CDK12 degradation IF, DC50- [mol/l] (median); for (IC50 CDK12 high ATP) to (Degradation DC50 CDK12) ratio: ratio of IC50 CDK12 high ATP kinase assay to DC50 CDK12 degradation (IF, CAL-120)
T1 construct: endogenous in cells; host or cells: CAL-120 human breast cancer cells (DSMZ ACC 459)
How it was run: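 CAL-120 cells were treated with compound for 24 h at 37 °C, fixed with PFA and immunostained for CDK12. Nuclear CDK12 intensity was quantified by automated image analysis and normalized to DMSO and control. DC50 is the concentration giving 50% reduction of nuclear staining.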

[5] = target: T2, CYCLIN K (nuclear staining in CAL-120 cells) (Homo sapiens, UniProt O75909); assay: CYCLIN K nuclear protein level: immunofluorescence high content analysis (CAL-120); format: cell-based; settings: 24 h, 50% reduction of nuclear CCNK staining intensity, median, read-out: CYCLIN K degradation IF, DC50-[mol/l] (median)
T2 construct: endogenous in cells; host or cells: CAL-120 human breast cancer cells (DSMZ ACC 459)
How it was run: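 CAL-120 breast cancer cells treated in dose-response for 24 h at 37 °C, PFA-fixed and immunostained for cyclin K with Hoechst counterstain. Confocal imaging quantified nuclear intensity; DC50 is the concentration giving 50% reduction of nuclear CCNK staining, normalized to DMSO and control.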

T2 sequence (O75909 whole entry): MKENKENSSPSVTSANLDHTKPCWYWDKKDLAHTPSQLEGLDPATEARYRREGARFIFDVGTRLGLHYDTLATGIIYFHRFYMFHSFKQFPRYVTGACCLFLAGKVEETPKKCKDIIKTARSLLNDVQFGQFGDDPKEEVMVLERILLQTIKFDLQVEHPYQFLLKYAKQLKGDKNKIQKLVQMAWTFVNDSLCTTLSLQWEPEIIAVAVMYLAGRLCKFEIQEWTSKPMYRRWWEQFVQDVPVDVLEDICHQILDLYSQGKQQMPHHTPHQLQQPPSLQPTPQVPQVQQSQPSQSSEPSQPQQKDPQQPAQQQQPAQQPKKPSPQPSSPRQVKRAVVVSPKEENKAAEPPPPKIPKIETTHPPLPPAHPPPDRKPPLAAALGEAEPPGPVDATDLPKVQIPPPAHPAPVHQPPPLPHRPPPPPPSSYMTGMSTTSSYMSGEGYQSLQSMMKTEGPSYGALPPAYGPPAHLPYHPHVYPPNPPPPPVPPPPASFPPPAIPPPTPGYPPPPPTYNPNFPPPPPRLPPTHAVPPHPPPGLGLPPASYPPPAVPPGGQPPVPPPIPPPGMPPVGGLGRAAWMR
T2 sequence (Q9NYV4 whole entry partner): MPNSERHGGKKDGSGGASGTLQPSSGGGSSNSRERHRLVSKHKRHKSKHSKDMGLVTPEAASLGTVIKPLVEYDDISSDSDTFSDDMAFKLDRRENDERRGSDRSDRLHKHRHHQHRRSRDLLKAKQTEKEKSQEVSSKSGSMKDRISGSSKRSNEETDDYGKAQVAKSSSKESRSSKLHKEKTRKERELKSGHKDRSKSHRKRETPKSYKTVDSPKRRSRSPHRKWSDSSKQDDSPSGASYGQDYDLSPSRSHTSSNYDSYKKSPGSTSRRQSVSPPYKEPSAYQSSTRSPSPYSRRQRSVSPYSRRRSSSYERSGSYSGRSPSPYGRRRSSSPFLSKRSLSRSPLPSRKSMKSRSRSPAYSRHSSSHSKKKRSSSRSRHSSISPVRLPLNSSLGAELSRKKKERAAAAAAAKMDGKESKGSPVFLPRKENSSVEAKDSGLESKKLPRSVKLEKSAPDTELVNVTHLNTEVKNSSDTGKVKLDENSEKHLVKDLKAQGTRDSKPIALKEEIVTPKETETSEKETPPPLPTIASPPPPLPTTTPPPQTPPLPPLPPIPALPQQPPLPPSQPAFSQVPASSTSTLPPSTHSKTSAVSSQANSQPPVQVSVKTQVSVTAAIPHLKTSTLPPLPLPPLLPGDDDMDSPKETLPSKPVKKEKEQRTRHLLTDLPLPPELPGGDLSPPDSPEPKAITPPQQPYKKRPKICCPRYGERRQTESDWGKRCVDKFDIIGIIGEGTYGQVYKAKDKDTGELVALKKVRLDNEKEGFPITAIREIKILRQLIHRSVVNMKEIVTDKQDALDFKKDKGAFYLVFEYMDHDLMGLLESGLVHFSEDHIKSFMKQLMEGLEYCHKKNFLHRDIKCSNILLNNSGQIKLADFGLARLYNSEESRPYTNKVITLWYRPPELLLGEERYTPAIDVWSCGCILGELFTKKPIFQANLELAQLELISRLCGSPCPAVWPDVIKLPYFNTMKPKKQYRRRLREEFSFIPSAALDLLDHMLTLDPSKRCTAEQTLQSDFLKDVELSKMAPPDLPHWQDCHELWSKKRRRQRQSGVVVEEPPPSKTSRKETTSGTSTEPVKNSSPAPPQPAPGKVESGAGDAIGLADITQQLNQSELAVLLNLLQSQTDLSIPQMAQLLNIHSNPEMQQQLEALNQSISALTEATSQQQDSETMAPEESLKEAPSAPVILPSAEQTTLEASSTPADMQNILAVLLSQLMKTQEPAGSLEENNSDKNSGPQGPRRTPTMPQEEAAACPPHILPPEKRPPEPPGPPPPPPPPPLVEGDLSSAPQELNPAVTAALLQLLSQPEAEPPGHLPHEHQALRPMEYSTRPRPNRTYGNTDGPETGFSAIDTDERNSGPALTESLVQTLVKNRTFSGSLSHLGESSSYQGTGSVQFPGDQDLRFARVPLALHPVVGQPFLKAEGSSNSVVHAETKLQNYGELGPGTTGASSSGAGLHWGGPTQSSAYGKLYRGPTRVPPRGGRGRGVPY
T1 sequence (Q9NYV4 whole entry): as the sequence (Q9NYV4 whole entry partner) above
T1 sequence (O75909 whole entry partner): as the sequence (O75909 whole entry) above

Row | Compound | pIC50 [1] | pIC50 [2] | pIC50 [3] | DC50 [4] [nM] | (IC50 CDK12 high ATP) to (Degradation DC50 CDK12) ratio [4] | DC50 [5] [nM]
1 | CC(C)c1cnn2c(NCc3ncc(-c4ccccc4)[nH]3)nc(N3CCN(C)CC3)nc12 [Example 31, 2-(4-methylpiperazin-1-yl)-N-[(5-phenyl-1H-imidazol-2-yl)methyl]-8-(propan-2-yl)pyrazolo[1,5-a][1,3,5]triazin-4-amine] | 7.82 | 7.68 | 7.26 | 19.7 | 689 | –
2 | Fc1ccc(-c2nnc(CNc3nc(N4CCOCC4)nc4c(Br)cnn34)[nH]2)cc1 [Example 29, 8-bromo-N-{[5-(4-fluorophenyl)-4H-1,2,4-triazol-3-yl]methyl}-2-(morpholin-4-yl)pyrazolo[1,5-a][1,3,5]triazin-4-amine] | 7.67 | 6.77 | 7.08 | 11.8 | 310 | 3.36
3 | Cc1ccnc2[nH]c(CNc3nc(N4CCOCC4)nc4c(C(C)C)cnn34)nc12 [Example 28, N-[(7-methyl-3H-imidazo[4,5-b]pyridin-2-yl)methyl]-2-(morpholin-4-yl)-8-(propan-2-yl)pyrazolo[1,5-a][1,3,5]triazin-4-amine] | 7.88 | 7.41 | 7.51 | 6.5 | 511 | 0.888
4 | Cc1cc2nc(CNc3nc(N(C)CC(C)(C)O)nc4c(C5CC5)cnn34)[nH]c2cc1C [Example 321, 1-[(8-cyclopropyl-4-{[(5,6-dimethyl-1H-benzimidazol-2-yl)methyl]amino}pyrazolo[1,5-a][1,3,5]triazin-2-yl)(methyl)amino]-2-methylpropan-2-ol] | 8.89 | 8.63 | – | 6.23 | 67 | 1.36

From patent US20230117034A1, “PYRAZOLOTRIAZINES” (Bayer Aktiengesellschaft, priority 2019, published 2023)
